Assay results: ChEMBL document CHEMBL1137806, “Cytotoxic oxoisoaporphine alkaloids from Menispermum dauricum” (J Nat Prod, 2001)

Experiments:
Format in all cases: functional, cell-based
A549 = experiment: Cytotoxicity against human A549 cells by MTT assay
MCF7 = experiment: Cytotoxicity against human MCF7 cells by MTT assay
HL-60 = experiment: Cytotoxicity against human HL60 cells by MTT assay
P388 = experiment: Cytotoxicity against mouse P388 cells by MTT assay

Structure (SMILES) | IC50 (A549) | IC50 (MCF7) | IC50 (HL-60) | IC50 (P388)
COc1ccc2c(c1)C(=O)c1c(NCCc3ccc(O)cc3)c(OC)cc3ccnc-2c13 [DAURIOXOISOPORPHINE A] | 8.8 µM | 3 µM | > 50 µM | 30.5 µM
COc1ccc2c(c1)C(=O)c1c(N)c(OC)c(OC)c3ccnc-2c13 [DAURIOXOISOPORPHINE B] | > 50 µM | 6.2 µM | > 50 µM | 9.6 µM
COc1cc([C@@H]2c3cc4c(cc3[C@@H](O[C@@H]3O[C@@H]5CO[C@@H](C)O[C@H]5[C@H](O)[C@H]3O)[C@H]3COC(=O)[C@H]23)OCO4)cc(OC)c1O [ETOPOSIDE] | 0.5 µM | 12.3 µM | 5.4 µM | 0.1 µM
